Experimental data published in US12403160B2, “Injection composition containing isolated mitochondria, and use thereof” (Paean Biotechnology Inc., priority 2020, dated 2025).

Experiments:
platelets = tested on: platelets
Experimental: After treatment, the resultant was incubated with shaking at 100 rpm at 37° C. for one hour.

[1] = tested on: platelets isolated from pig whole blood; assay: Effect of storage solvent for mitochondria and antithrombotic agent on platelet aggregation; assay type: cell-based
Experimental: Pig whole blood was centrifuged at 300×g for 5 minutes to obtain a cloudy yellow supernatant containing platelets and plasma. […] The obtained platelet precipitate was replaced with an equal amount of Dulbecco's phosphate-buffered saline (DPBS) solution, washed by centrifugation at 1,500×g for 15 minutes, and resuspended in an equal amount of a fresh DPBS solution.
In order to confirm the effect of a storage solvent for mitochondria and an antithrombotic agent on inhibition of platelet aggregation, the mitochondria of human umbilical cord-derived mesenchymal stem cells (UC-hMSC) were isolated and stored in saline and SHE solution, which is a storage solvent, for one hour, respectively, and the resultant was treated with the platelets isolated from pig whole blood and then treated with heparin. After 1 hour, the result was confirmed with a confocal laser scanning microscope.

platelets in the blood = assay: Number of platelets in the blood after intravenous injection of mitochondria; assay type: in vivo, BALB/c-nu/nu mice; settings: UC-hMSC mitochondria 50 μg/0.3 mL, single intravenous injection, mice
Experimental: The specific experimental design, which was performed so as to confirm the effect of reducing the number of platelets during intravascular injection of mitochondria into mice, is as shown in Table 2 below.

Compound	glycine concentration at which mitochondria-induced platelet aggregation is inhibited (platelets; 1 μg UC-hMSC mitochondria in 10 μL Tris-trehalose buffer with glycine 0-100 mM, 1 mL platelet solution, 37° C., one hour) [mM]	inhibition of mitochondria-induced platelet aggregation at low glycine concentration (platelets; low concentration of glycine in Tris-trehalose buffer)	inhibition of mitochondria-induced platelet aggregation with rising concentration of antithrombotic agent ([1]; UC-hMSC mitochondria stored in SHE solution)	inhibition of mitochondria-induced platelet aggregation by antithrombotic agent ([1]; UC-hMSC mitochondria stored in saline and SHE solution, pig platelets)	change in the number of platelets in the blood (platelets in the blood)
NCC(=O)O [glycine]	≥ 25	could not inhibit platelet aggregation	–	–	–
heparin	–	–	inhibited as the concentrations of heparin as an antithrombotic agent increased	partially inhibited	recovered to some extent, but the decrease in platelets was not completely inhibited
